The results in this text go back to patent publication US20250345317A1, “New pharmaceutical compounds, methods and uses thereof” (BBIT-THERAPEUTICS, LDA., priority 2020, published 2025).

One data set concerns HCC1937 cells. As to the kind of experiment: Wound healing assay (cell migration). Format: cell-based, human. Particulars: 1.9 μM. As for the experimental part:
FIG. 12 illustrates the prevention of HCC1937 cells migration by COMP. Confluent cells were treated with 1.9 μM COMP or DMSO and observed at different time-points in the wound healing assay (scale bar=50 μm and magnification=100×).
In an embodiment, COMP prevented cell migration of triple-negative breast cancer cells. The effect of COMP on the migration ability of HCC1937 cells was also studied.

The subject of a further data set is HFF-1. As to the kind of experiment: Growth inhibition, SRB assay, normal HFF-1 cells. It is filed as cell-based, human. Particulars: Homo sapiens, HFF-1, 48 h. The text has this:
(§1) Table 2 refers to the growth inhibitory effect of COMP, olaparib and cisplatin (CDDP) in a panel of human immortalized breast (T47D, MCF-7, MDA-MB-231, MDA-MB-468, SK-BR-3 and HCC1937), ovarian and endocervical (OCVAR, SKOV-3, […],IGROV-1 and HeLa), pancreatic (PANC-1 and MIAPACA), neuroblastoma (SHSY-5Y), lung (NCI-H460), prostate (VCaP) melanoma (A375 and SK-MEL-5) and glioblastoma (SF-208) cancer cells, immortalized normal MCF10a and HFF1 human cells, and patient-derived ovarian (PD-OVCA #1, #9, #41, #49 and #62) cancer cells. […] Data are mean±SEM (n=5).
(§2) In an embodiment, IC50 values were determined by Sulforhodamine B (SRB) or MTS [3-(4,5-dimethylthiazol-2-yl)-5-(3-carboxymethoxyphenyl)-2-(4-sulfophenyl)-2H-tetrazolium] assay in immortalized and PD-OVCA cells, respectively. Cancer cells were plated in 96-well plates and incubated for 24 hours. Cells were then exposed to serial dilutions of compounds for 48 hours. The solvent DMSO corresponding to the maximum concentration used in these assays (0.025%) was included as control. Results are the mean±S.E.M. of 3-5 independent experiments.
For orientation: Sulforhodamine B stains cellular protein and so reports cell mass.

A further data set deals with BRCA1-BARD1 interaction. As to the kind of experiment: Co-IP of BRCA1-BARD1 interaction. Particulars: 12 and 20 μM; 18 hours (MDA-MB-231, HCC1937), 24 hours (IGROV-1). It is filed as cell-based, human. As for the experimental part: (FIGS. 11A-D) Co-IP was performed in MDA-MB-231 (FIG. 11A), HCC1937 (FIG. 11B) and IGROV-1 (FIG. 11C) cells treated with 12 and 20 μM COMP for 18 hours (in MDA-MB-231 and HCC1937 cells) and 24 hours (in IGROV-1 cells). Assay was performed using the Pierce classic magnetic IP and Kit followed by western blot detection. In FIGS. 11A-C, representative immunoblots are shown; whole-cell lysate (Input).

Another data set relates to HeLa. The data set can be described thus: Growth inhibition, SRB assay, HeLa. It is filed as cell-based. The settings on record: Homo sapiens, wild-type BRCA1/2, 48 hours.
Description: as §1, §2

In the next data set the test system is Vcap. As to the kind of experiment: Growth inhibition, SRB assay, Vcap. It is filed as cell-based. The settings on record: Homo sapiens, wild-type BRCA1/2, 48 hours.
Description: as §1, §2

A further data set deals with PD-OVCA#62. As to the kind of experiment: Growth inhibition, MTS assay, PD-OVCA#62. Format: cell-based, human. Particulars: Homo sapiens, PD-OVCA#62, wild-type BRCA1/2, 48 hours.
Description: as §1, §2
(Tetrazolium assays rely on reduction of a dye to a coloured formazan, in cell work by metabolically active cells.)

The next data set deals with MDA-MB-231. As to the kind of experiment: Growth inhibition, SRB assay, MDA-MB-231. Format: cell-based, human. Particulars: Homo sapiens, MDA-MB-231, 48 h.
Description: as §1, §2

In a further data set the test system is A375. As to the kind of experiment: Growth inhibition, SRB assay, A375. It is filed as cell-based. The settings on record: Homo sapiens, A-375, A375, wild-type BRCA1/2, 48 hours.
Description: as §1, §2

The nature of data set [1]: Body and organ weight of treated xenograft mice. Format: in vivo. Particulars: 2 mg/kg intraperitoneal, seven administrations; compared to vehicle. Here is the method: FIG. 14 illustrates the in vivo antitumor activity of COMP. C57BL/6-Rag2−/−IL2rg−/− xenograft mice, carrying IGROV-1 cells, were treated with vehicle (control), or 2 mg/kg of COMP or 50 mg/kg of olaparib by intraperitoneal injection three times per week (seven administrations in total). The treatment was initiated when palpable tumors were established (^˜100 mm3). […] In FIGS. 14A-C, data are mean±SEM, n=13 animals.

Data set [2] relates to phosphorylated (Ser139) histone H2AX (γH2AX). The data set can be described thus: γH2AX expression and foci formation. It is filed as cell-based, human. The settings on record: 12 μM, 48 hours; MDA-MB-231, HCC1937 and IGROV-1 cells. Here is the method:
FIG. 10 illustrates the effect of 12 μM COMP on (A) γH2AX expression levels and on (FIG. 10B) γH2AX and RAD51 foci formation, and BRCA1 foci formation and cellular localization after 48 hours of treatment. […] FIG. 10B are representative images generated using Fiji software (scale bar=100 μm; 400 × magnification).
In an embodiment, 12 μM of COMP increased the amount of phosphorylated (Ser139) histone H2AX (γH2AX) (FIG. 10A) and the number of γH2AX-positive foci formed in MDA-MB-231, HCC1937 and IGROV-1 cells (FIG. 10B and FIG. 10C).

A further data set has as its system SK-BR-3. As to the kind of experiment: Growth inhibition, SRB assay, SK-BR-3. Particulars: Homo sapiens, SK-BR-3, 48 h. It is filed as cell-based, human.
Description: as §1, §2

Another data set relates to MCF-7. As to the kind of experiment: Growth inhibition, SRB assay, MCF-7. It is filed as cell-based, human. Particulars: Homo sapiens, MCF7, 48 h.
Description: as §1, §2

In the next data set the test system is MCF7 DR-GFP cells. As to the kind of experiment: Chromosomal DR-GFP homologous recombination assay. The settings on record: 2 μM and 6 μM, 48 hours. Format: cell-based, human. Here is the method: FIG. 9 illustrates the effect of 2 and 6 μM COMP after 48 hours of treatment on homologous recombination activity in MCF7 DR-GFP cells using the chromosomal DR-GFP assay. After 72 hours of double strand breaks induction, MCF7 DR-GFP cells were analysed by flow cytometry to quantify the percentage of GFP-positive cells.
In an embodiment, COMP decreased homologous recombination DNA repair and disrupted the BRCA1-BARD1 interaction.

Data set [3] has as its system pancreatic cancer cells (PANC-1 and MIAPACA). The data set can be described thus: Growth inhibition, pancreatic cancer cells. Particulars: Homo sapiens, Pancreatic cancer cell, 48 hours. It is filed as cell-based. As for the experimental part:
In an embodiment, the activity of COMP compound was tested in an array of human normal and cancer cell lines (Table 2, FIG. 2).
as §1, §2

The next data set relates to T47D. As to the kind of experiment: Growth inhibition, SRB assay, T47D. Format: cell-based, human. The settings on record: Homo sapiens, 48 h.
Description: as §1, §2

As usually defined, the IC50 is the point on the concentration scale where inhibition reaches its midpoint. A high value points to weaker potency. Turning to `CC[C@H]1CN(C)C2Cc3c([nH]c4ccccc34)/C(=N/Nc3ccc(Br)cn3)C[C@@H]1[C@@H]2C(=O)OC` [COMP, methyl (5R,6S,14S,E)-8-(2-(5-bromopyridin-2-yl) hydrazineylidene)-5-ethyl-3-methyl-2,3,4,5,6,7,8,9-octahydro-1H-2,6-methanoazecino [5,4-b]indole-14-carboxylate], the wound closure entry in the data set on HCC1937 cells is recorded as “significantly reduced the wound closure”. Moreover, the IC50 with HFF-1 (HFF1 normal cells, 48 hours (second Table 2)) is 33.6 µM; in the data set with HFF-1 (HFF-1 normal cells, 48 hours) it was 33.6 µM; in the data set with HeLa it was 5.8 ± 0.8 µM; in the data set on Vcap it was 11.7 ± 3.4 µM; in the data set with PD-OVCA#62, 14.2 ± 2.9 µM; in the data set on MDA-MB-231 (MDA-MB-231, BRCA1 loss of heterozigoty, 48 hours), 5 ± 1.4 µM. Further, the half-inhibitory concentration (IC50) with MDA-MB-231 (MDA-MB-231, BRCA1 loss of heterozygosity, 48 hours (second Table 2)) was found to be 5 µM; in the data set with A375, 15.5 ± 0.5 µM; in the data set on SK-BR-3 (SK-BR-3, BRCA1 loss of heterozigoty, 48 hours), 5.7 ± 1.4 µM; in the data set with SK-BR-3 (SK-BR-3, BRCA1 loss of heterozygosity, 48 hours (second Table 2)), 5.7 µM; in the data set on MCF-7 (MCF-7, BRCA1 wild-type, 48 hours (second Table 2)), 12 µM; with MCF-7 (MCF-7, wild-type BRCA1/2, 48 hours), 12 ± 1.5 µM. Besides, the IC50 in data set [3] turned out to be 4.5 µM; in the data set on T47D (BRCA1 wild-type, 48 hours (second Table 2)), 11.5 µM; in the data set on T47D (wild-type BRCA1/2, 48 hours) it was 11.5 ± 3 µM. For the same compound, in the data set with BRCA1-BARD1 interaction, the “BRCA1-BARD1 interaction (BARD1 co-immunoprecipitated with BRCA1)” value was “disruption of the BRCA1-BARD1 interaction”. In addition, the body weight entry in data set [1] was “no significant variation”. Further, the “organs weight (spleen, liver, heart and kidneys)” value in data set [1] is recorded as “no significant variation”. The “amount of γH2AX and number of γH2AX-positive foci” value in [2] is listed as “increased”. Further, the “homologous recombination DNA repair capacity (GFP-positive cells)” value in the data set on MCF7 DR-GFP cells is “marked reduction”.
